Results published in patent US9061981B2, “Diphenyl substituted cyclohexane derivatives, useful as modulators of the estrogen receptors beta” (Acadia Pharmaceuticals Inc., priority 2011, dated 2015).
pEC50, pKi: −log10 of the molar value. Where “and” joins values, the source holds several entries; their conditions need not be identical. Equal values may be shown once.

Assays:
[1] = Microsomal bioavailability (Table 2); format: in vitro ADME; conditions: read-out: Microsomal bioavailability F (%)
ERβ [2] = molecular target: T1, ERβ (Homo sapiens, UniProt Q92731); assay: Competitive 3H-estradiol binding assay, ERβ; parameters: expressed in transfected cells; host or cells: HEK293 cells, transient transfection
Protocol: (§1) Cells were then harvested by scraping in ice-cold PBS and subsequently lysed using a cold buffer containing 10 mM Tris pH 7.4, 1 mM EDTA, 1 mM DTT before being subjected to polytron twice for 10 seconds. Cytosolic extracts were isolated by centrifugation at 15000 g for 30 minutes at 4° C. Competitive binding of the test compounds or the estradiol control was performed on 20 μL extract by overnight incubation at 4° C. in a total volume of 100 μL containing 1 nM ^3H-estradiol (Perkin Elmer, Boston, Mass.). The bound fraction was separated from the unbound one by the addition of 100 μL of Dextran coated charcoal, incubated for 10 minutes and subsequent centrifugation at 1000 rpm for 10 minutes. Samples (100 μL per sample) were then analyzed by liquid scintillation. Data was then analyzed using the curve fitting software GraphPad Prism.

[3] = Metabolic stability in liver microsomes, rat; format: in vitro ADME; conditions: low value = metabolically stable
Protocol: (§2) Also the metabolic stability in liver microsomes was tested for some compounds.

ERα [4] = molecular target: T2, ERα (Homo sapiens, UniProt P03372); assay: R-SAT functional assay, ERα; format: cell-based; parameters: expressed in transfected cells; host or cells: NIH-3T3 fibroblasts, transient transfection; conditions: NIH-3T3 cells; for EC50: na = not active, read-out: R-SAT Erα pEC50 (converted)
T2 sequence (P03372 1-595): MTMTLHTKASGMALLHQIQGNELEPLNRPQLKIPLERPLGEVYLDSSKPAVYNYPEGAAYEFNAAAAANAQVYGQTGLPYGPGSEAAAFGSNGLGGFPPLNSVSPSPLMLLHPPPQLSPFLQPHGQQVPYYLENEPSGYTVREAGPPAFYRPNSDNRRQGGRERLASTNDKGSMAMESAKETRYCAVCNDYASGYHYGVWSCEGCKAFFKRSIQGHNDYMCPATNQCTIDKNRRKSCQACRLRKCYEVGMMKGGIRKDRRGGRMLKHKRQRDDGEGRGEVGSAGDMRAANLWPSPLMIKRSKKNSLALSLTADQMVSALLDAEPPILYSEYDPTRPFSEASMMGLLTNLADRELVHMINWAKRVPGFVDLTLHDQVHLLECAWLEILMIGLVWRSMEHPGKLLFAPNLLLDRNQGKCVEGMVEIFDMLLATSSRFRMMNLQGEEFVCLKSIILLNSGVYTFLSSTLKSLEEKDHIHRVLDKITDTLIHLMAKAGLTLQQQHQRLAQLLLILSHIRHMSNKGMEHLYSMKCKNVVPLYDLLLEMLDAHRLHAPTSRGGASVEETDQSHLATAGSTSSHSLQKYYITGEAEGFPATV
Source text: (§3) R-SAT® (Receptor Selection and Amplification Technology) is a cell-based functional assay that allows one to monitor receptor-dependent proliferative responses and has been described elsewhere. […] This process is achieved by partial cellular transformation via loss of contact inhibition and growth factor dependency. Monitoring is achieved by transfecting the cells with a β-galactosidase reporter gene vector whose expression is under a constitutively active promoter. Briefly, NIH-3T3 fibroblasts were plated overnight in 96-wells plates in DMEM 10% calf serum (Hyclone) and grown to 60-70% confluency prior to transfection. Transient transfections were performed using Polyfect (Qiagen) according to manufacturer's instructions. Typically a transfection mix would consist of the receptor and the β-galactosidase expression vectors. Sixteen hours post-transfection, cells were incubated with different doses of ligand in DMEM containing 30% Ultraculture (Hyclone) and 0.4% calf serum (Hyclone) to generate a dose response curve. […] Plates were read using a microplate reader at 420 nm. Data from R-SAT® assays were fit to the equation: r=A+B(x/(x+c)), where A=minimum response, B=maximum response minus minimum response, c=EC50, r=response, and x=concentration of ligand. Curves were generated using the curve fitting softwares Excel Fit and GraphPad Prism (San Diego, Calif.). Luciferase Reporter Gene Assay

ERα [5] = molecular target: T2, ERα; assay: Competitive 3H-estradiol binding assay, ERα; conditions: 1 nM 3H-estradiol, HEK293T cytosolic extract; read-out: Binding ERα pKi (converted)
Protocol: as §1, with “HEK293T cells were transiently transfected for 48 hours with expression vectors encoding ERα or ERβ, before being serum starved for 4-6 hours. Cells” for “Cells”

ERβ [6] = molecular target: T1, ERβ; assay: R-SAT functional assay, ERβ; format: cell-based; parameters: expressed in transfected cells; host or cells: transient transfection
Source text: as §3

ERβ [7] = molecular target: T1, ERβ; assay: R-SAT functional assay, ERβ; format: cell-based; parameters: expressed in transfected cells; host or cells: transient transfection; remark: listed apart in the source
ERα [8] = molecular target: T2, ERα; assay: Luciferase reporter gene assay (3*ERE) in HEK293 cells, ERα; format: cell-based; parameters: expressed in transfected cells; host or cells: transient transfection; conditions: 48 hours; for EC50: na = not active, read-out: Luciferase Erα pEC50 (converted)
Protocol: (§4) HEK293 cells were grown to 70% confluency in DMEM containing 10% calf serum (Hyclone) prior to transfection. On the day of transfection (day 1), expression vectors for ERα or ERβ were cotransfected along a construct containing a synthetic 3*ERE upstream of the luciferase gene (Panomics), using Polyfect (Qiagen) per manufacturer's recommendations (ERE being estrogen response element). Sixteen hours post-transfection, cells were incubated in serum free DMEM. […] Cells extracts were then obtained by lyzing and the Luciferase activity measured, all of these steps performed using a commercially available kit (Promega).

ERβ [9] = molecular target: T1, ERβ; assay: Luciferase reporter gene assay (3*ERE) in HEK293 cells, ERβ; format: cell-based; parameters: expressed in transfected cells; host or cells: HEK293 cells, transient transfection; conditions: for Emax: read-out: Luciferase Erβ % Eff
Protocol: as §4

[10] = Metabolic stability in liver microsomes, human; format: in vitro ADME; conditions: low value = metabolically stable
Protocol: as §2

Taxol-induced allodynia = assay: Taxol-induced neuropathy model; format: in vivo, male SD rats; conditions: for effect on Taxol-induced allodynia: s.c. (gabapentin i.p.), Compound 8 at 10 and 30 mg/kg, 2 hours post-dose
Protocol: Neuropathy was induced in male SD rats by 4×1 mg/kg consecutive daily doses of taxol as described (Naguib M, Diaz P, Xu J J, Astruc-Diaz F, Craig S, Vivas-Mejia P, Brown D L. MDA7: a novel selective agonist for CB2 receptors that prevents allodynia in rat neuropathic pain models. Br J. Pharmacol. 2008 December; 155(7):1104-16). The presence of tactile allodynia (von Frey filament 50% response threshold of <5 g) was confirmed prior to inclusion in the study. Drugs were administered sub-cutaneously (s.c.) except gabapentin was given intra-peritoneally (i.p.). Doses are given in mg/kg. * p<0.05.
Allodynia was assessed by applying a light tactile stimulus (Von Frey hairs) to the plantar surface of the surgical paw until the 50% threshold was established. A positive response was recorded if the paw was sharply withdrawn. Eight VonFrey hairs were used (3.61, 3.84, 4.08, 4.31, 4.56, 4.74, 4.93 and 5.18). MPE (%) was calculated as [(Rdrug−Rveh)/(Rsham−Rveh)]*100% where Rveh was 4 and Rsham was 13. Repeat dosing (FIG. 10C) was performed by administering the indicated doses of Compound 8 once daily via the s.c. route. Efficacy was measured 2 hours post-dose.

[11] = Unidirectional permeability across MatTek EpiOral buccal tissue; format: in vitro ADME, human; conditions: test compound 10 μM co-dosed with controls atenolol and caffeine 100 μM, DPBS pH 7.4, 37° C.
Protocol: EpiOral→tissues plated in 24-well plates were obtained from MatTek Corporation (Ashland, Mass., USA). The assay buffer was Dulbeccos' Phosphate Buffered Saline (DPBS) without Ca & Mg chloride, pH 7.4. Each test compound was co-dosed with the two control compounds. Targeting dosing concentrations were 10 μM for each test compound and 100 μM for the two control compounds. Prior to the permeability assay onset, the tissues were preequilibrated in a pre-warmed EpiOral assay medium for one hour at 37° C. in a 5% CO2 incubator. The EpiOral assay medium was aspirated after the pre-equilibration, and the tissues were washed twice with the DPBS buffer. The receiver chambers were filled with 0.75 mL of the DPBS buffer, while the donor chambers received 0.4 mL of the dosing solutions. The assay plates were placed at 37° C. in a 5% CO2 incubator. The receiver samples (200 μL) were collected at 30, 60, and 120 minutes, and replaced with an equal volume of fresh pre-warmed receiver buffer (except for the last time point of 120 minutes). The donor sides were sampled at 0 and 120 minutes. The test compounds were then analyzed using LC-MS/MS.

[12] = NIH3T3, read-out: R-SAT Erβ % Eff
[13] = NIH3T3, NIH-3T3 cells, read-out: R-SAT Erβ % Eff

T1 sequence (Q92731 whole entry, species assumed): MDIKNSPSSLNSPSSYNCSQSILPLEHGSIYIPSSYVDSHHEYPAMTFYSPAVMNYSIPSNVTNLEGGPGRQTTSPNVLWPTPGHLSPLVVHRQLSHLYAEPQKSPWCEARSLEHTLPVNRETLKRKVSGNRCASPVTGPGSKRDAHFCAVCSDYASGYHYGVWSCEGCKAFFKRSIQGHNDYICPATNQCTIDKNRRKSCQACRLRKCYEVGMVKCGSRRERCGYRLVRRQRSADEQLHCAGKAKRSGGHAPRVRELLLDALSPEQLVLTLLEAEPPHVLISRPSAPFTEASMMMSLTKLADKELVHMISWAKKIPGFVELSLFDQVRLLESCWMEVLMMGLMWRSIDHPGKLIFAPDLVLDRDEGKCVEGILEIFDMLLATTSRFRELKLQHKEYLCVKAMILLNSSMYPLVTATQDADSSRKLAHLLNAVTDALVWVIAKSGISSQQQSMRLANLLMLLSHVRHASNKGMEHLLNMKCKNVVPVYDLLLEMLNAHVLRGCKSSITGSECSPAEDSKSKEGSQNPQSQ

Row | SMILES | Microsomal bioavailability (predicted from microsomes) [1] | pKi (ERβ [2]) | microsomal CLint [3] | R-SAT Erα % Eff (ERα [4]) | EC50 (ERα [4]) | Ki (ERα [5]) | Emax (ERβ [6]; [12]) | pEC50 (ERβ [7]) | Luciferase Erα % Eff (ERα [8]) | pEC50 (ERβ [9]) | Emax (ERβ [9]; HEK293, 48 h) | microsomal CLint [10] | Emax (ERβ [6]; [13]) | Emax (ERβ [9]; HEK293 cells, 48 hours) | EC50 (ERα [8]) | effect on Taxol-induced allodynia (Taxol-induced allodynia) | apparent permeability coefficient (Papp) across MatTek EpiOral buccal tissues [11] | maximum effect (MPE) (Taxol-induced allodynia; gabapentin i.p.)
1 | COc1ccc(C2(c3ccccc3F)CCC(F)(F)CC2)cc1 [Compound 9, 1-(4,4-Difluoro-1-(4-methoxyphenyl)cyclohexyl)-2-fluorobenzene] | 19.6% | – | – | – | – | – | – | – | – | – | – | – | – | – | – | – | – | –
2 | Oc1ccc(C2(c3ccccc3F)CCC(F)(F)CC2)cc1F [Compound 10, 4-(4,4-Difluoro-1-(2-fluorophenyl)cyclohexyl)-2-fluorophenol] | – | 8.30 | 95 µL/min/mg | 100% | 1000 nM | 251 nM | 57% | 8.60 | 2% | 8.70 | 55% | 11 µL/min/mg | – | – | – | – | – | –
3 | Oc1ccc(C2(c3ccccc3Cl)CCC(F)(F)CC2)cc1 [Compound 12] | – | 8.40 | 147 µL/min/mg | 74% | – | 100 nM | – | 8.50 | 30% | 9.20 | – | – | 42% | 74% | – | – | – | –
4 | Oc1ccc(C2(c3ccccc3Cl)CCC(F)(F)CC2)cc1F [Compound 14] | – | 8.40 | 113 µL/min/mg | 145% | 100 nM | 50.1 nM | 60% | 8.80 | 82% | 9.20 | 52% | – | – | – | – | – | – | –
5 | Oc1ccc(C2(c3ccccc3F)CCCCC2)cc1 [Compound 152] | – | 7.20 | 405 µL/min/mg | 29% | 1580 nM | – | – | 7.90 | 48% | 7.70 | – | 27 µL/min/mg | 69% | 126% | 3980 nM | – | – | –
6 | Oc1ccc(C2(c3ccccc3Cl)CCCCC2)cc1 [Compound 558] | 2% | 7.30 | – | 48% | 1260 nM | 1000 nM | – | 8.20 | 37% | 8.60 | – | – | 73% | 101% | 1580 nM | – | – | –
7 | N#CC(Cc1ccc(O)cc1)c1ccc(O)cc1 (stereo not drawn) [DPN] | – | – | – | – | – | – | – | – | – | – | – | – | – | – | – | active | – | –
8 | Cn1c(=O)c2c(ncn2C)n(C)c1=O [caffeine] | – | – | – | – | – | – | – | – | – | – | – | – | – | – | – | – | 27.5 ×10⁻⁶ cm/s and 22.3 ×10⁻⁶ cm/s | –
9 | NCC1(CC(=O)O)CCCCC1 [gabapentin] | – | – | – | – | – | – | – | – | – | – | – | – | – | – | – | relatively ineffective | – | 39%
